Measured values reported in publication PMC12631873 (Advanced Science, 2025).
Square brackets hold non-standard residues; d marks the D form. Peptide text beside a SMILES is read from it. * marks the point of attachment. X1 = CN1/C(=C/C=C/C=C/C2=[N+](CCCCCC(=O)*)c3ccc(S(=O)(=O)[O-])cc3C2(C)C)C(C)(C)c2cc(S(=O)(=O)O)ccc21; Hyp = O=C(O)[C@@H]1C[C@@H](O)CN1; Nlys = NCCCCNCC(=O)O; Ahx = NCCCCCC(=O)O

Columns and labels:
[1] = Blood biochemical analysis; type: in vivo, mouse; conditions: C57BL/6J mice, 24 h post i.v. injection of 2 nmol, n = 5
Description: Blood biochemical analysis: Each C57BL/6J mouse (6–8 weeks old) was intravenously injected with 100 µL of PBS or Cy5‐(NlysO)7 (2 nmol in 100 µL 1× PBS buffer per mouse) 24 h prior to blood collection for the biochemical analysis. Biochemical analysis of the blood was performed by Wuhan Servicebio.

[2] = In vitro cartilage uptake (absorption); conditions: after 30 min; 10 mg porcine cartilage slice, 10 µM in 200 µL 1× PBS, room temperature, fluorescence, n = 6
Description: Porcine cartilage was freshly harvested from the articular cartilage of an adult pig's knee joint obtained from a local slaughterhouse. Porcine cartilage plugs (diameter: 6 mm) were excised using an osteotomy drill with constant rinsing with PBS buffer for cooling. All solutions in the experiments with unfixed porcine cartilage samples (e.g., Figure 2d–f; Figures S5 and S6, Supporting Information) contained 100 U mL^−1 penicillin and 0.1 mg mL^−1 streptomycin (Solarbio, P1400) to prevent bacterial growth.
The porcine cartilage plugs were carefully cut into small cuboids with a uniform size (≈5 × 1 × 2 mm, ≈10 mg by wet weight). […] Each incubation bath was aliquoted so its fluorescence FN1 of the incubation bath was measured without the cartilage samples using a microplate reader (PerkinElmer EnVision; excitation: 646 nm, emission: 662 nm) at specified time points (N1 = 0.5, 1, 2, 4, 6, 8, 10, 12, and 24 h) to estimate the absorption of the probes (Figure 2d; Figure S5, Supporting Information), while fluorescence levels of the compound solutions pre‐measured before incubation were recorded as Fpre. The unabsorbed percent was calculated as FN1/Fpre×100%, and the final fluorescence measurement after 24 h of absorption was recorded as F24h. […]

Structure (SMILES)	blood biochemical analytes (ALT, AST, TBIL, UREA, BUN, CREA) vs PBS group [1]	unabsorbed percent of starting concentration remaining in solution [2]
CN1/C(=C/C=C/C=C/C2=[N+](CCCCCC(=O)NCCCCCC(=O)N(CCCCN)CC(=O)N3C[C@H](O)C[C@H]3C(=O)N(CCCCN)CC(=O)N3C[C@H](O)C[C@H]3C(=O)N(CCCCN)CC(=O)N3C[C@H](O)C[C@H]3C(=O)N(CCCCN)CC(=O)N3C[C@H](O)C[C@H]3C(=O)N(CCCCN)CC(=O)N3C[C@H](O)C[C@H]3C(=O)N(CCCCN)CC(=O)N3C[C@H](O)C[C@H]3C(=O)N(CCCCN)CC(=O)N3C[C@H](O)C[C@H]3C(N)=O)c3ccc(S(=O)(=O)[O-])cc3C2(C)C)C(C)(C)c2cc(S(=O)(=O)O)ccc21 [Cy5‐(NlysO)7] ({X1-Ahx}-[Nlys][Hyp][Nlys][Hyp][Nlys][Hyp][Nlys][Hyp][Nlys][Hyp][Nlys][Hyp][Nlys][Hyp]-NH2)	no key analytes from the Cy5‐(NlysO)7 group significantly differed	–
CN1/C(=C/C=C/C=C/C2=[N+](CCCCCC(=O)NCCCCCC(=O)N[C@@H](CCCNC(=N)N)C(=O)N[C@@H](CCCNC(=N)N)C(=O)N[C@@H](CCCNC(=N)N)C(=O)N[C@@H](CCCNC(=N)N)C(=O)N[C@@H](CCCNC(=N)N)C(=O)N[C@@H](CCCNC(=N)N)C(=O)N[C@@H](CCCNC(=N)N)C(=O)N[C@@H](CCCNC(=N)N)C(N)=O)c3ccc(S(=O)(=O)[O-])cc3C2(C)C)C(C)(C)c2cc(S(=O)(=O)O)ccc21 [Cy5‐R8, reference compound]	–	≈ 20%
